# Source: ChEMBL document CHEMBL4325845, “Tau Tubulin Kinase 1 (TTBK1), a new player in the fight against neurodegenerative diseases” (Eur J Med Chem, 2019)
# What was measured:
# Tau-tubulin kinase 1 [1] = molecular target: T1, Tau-tubulin kinase 1 (Homo sapiens, UniProt Q5TCY1); experiment: Binding affinity to phosphorylated TTBK1 (unknown origin) by SPR analysis
# Tau-tubulin kinase 1 [2] = molecular target: T1, Tau-tubulin kinase 1; experiment: Binding affinity to phosphorylated TTBK1 (unknown origin) assessed as association rate constant by SPR analysis
# [3] = Inhibition of FTK (unknown origin); design: species or system Homo sapiens
# T1 sequence (Q5TCY1 whole entry): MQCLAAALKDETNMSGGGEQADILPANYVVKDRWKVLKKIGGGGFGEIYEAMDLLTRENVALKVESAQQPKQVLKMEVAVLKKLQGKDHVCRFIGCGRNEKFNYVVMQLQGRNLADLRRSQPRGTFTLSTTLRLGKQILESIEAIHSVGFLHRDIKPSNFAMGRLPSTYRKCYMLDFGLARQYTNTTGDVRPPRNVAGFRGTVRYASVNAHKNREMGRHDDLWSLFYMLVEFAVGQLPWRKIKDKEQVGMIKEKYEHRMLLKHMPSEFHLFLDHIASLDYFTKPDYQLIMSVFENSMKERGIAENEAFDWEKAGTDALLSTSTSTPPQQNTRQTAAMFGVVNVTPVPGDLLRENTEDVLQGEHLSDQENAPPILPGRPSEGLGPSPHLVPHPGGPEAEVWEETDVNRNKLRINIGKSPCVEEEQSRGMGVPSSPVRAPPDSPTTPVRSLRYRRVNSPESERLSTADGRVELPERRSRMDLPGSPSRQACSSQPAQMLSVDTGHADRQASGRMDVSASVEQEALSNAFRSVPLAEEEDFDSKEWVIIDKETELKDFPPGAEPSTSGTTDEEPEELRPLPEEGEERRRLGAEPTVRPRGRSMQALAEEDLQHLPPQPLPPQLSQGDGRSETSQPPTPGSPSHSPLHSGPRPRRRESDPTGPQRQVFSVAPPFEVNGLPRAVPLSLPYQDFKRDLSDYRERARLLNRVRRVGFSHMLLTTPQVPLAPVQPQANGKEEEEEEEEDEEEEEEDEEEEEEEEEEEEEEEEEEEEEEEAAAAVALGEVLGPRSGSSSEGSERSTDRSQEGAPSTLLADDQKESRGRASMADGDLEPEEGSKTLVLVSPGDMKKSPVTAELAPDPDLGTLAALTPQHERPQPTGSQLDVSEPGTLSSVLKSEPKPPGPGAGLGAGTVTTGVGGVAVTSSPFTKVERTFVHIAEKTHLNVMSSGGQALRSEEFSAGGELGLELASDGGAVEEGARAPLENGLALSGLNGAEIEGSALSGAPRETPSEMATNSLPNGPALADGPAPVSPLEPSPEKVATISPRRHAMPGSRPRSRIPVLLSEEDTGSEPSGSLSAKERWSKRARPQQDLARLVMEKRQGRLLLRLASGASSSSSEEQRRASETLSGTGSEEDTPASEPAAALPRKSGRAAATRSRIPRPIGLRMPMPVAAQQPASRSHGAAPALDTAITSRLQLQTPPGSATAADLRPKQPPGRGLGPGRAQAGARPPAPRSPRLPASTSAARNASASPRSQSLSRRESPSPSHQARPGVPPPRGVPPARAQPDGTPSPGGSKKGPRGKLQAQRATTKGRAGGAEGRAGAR
Kd (Tau-tubulin kinase 1 [1]),K (Tau-tubulin kinase 1 [2]),IC50 [3],Structure (SMILES)
4.1 µM,,,COC(=O)c1cc(Nc2ncnc3[nH]ccc23)ccc1Br
,6.8 ×10⁶ /s,11 µM,COc1cc2ncnc(Nc3cccc(O)c3)c2cc1OC
